Experimental data: patent publication US5321041A, “Diphenylpyrrolylfuran derivatives” (Nihon Iyakuhin Kogyo Co., Ltd., priority 1992, dated 1994)
Read-outs that look alike come from different tables or passages of the source.

Legend:
[1] = system: paw edema induced by carageenin; assay: Inhibitory activity on paw edema induced by carageenin; assay type: in vivo, Wistar rats; conditions: rat, oral, 10 mg/kg, 3 hours after carageenin
Description: EXPERIMENT 4: INHIBITORY ACTIVITY ON PAW EDEMA INDUCED BY CARAGEENIN
Wistar rats (body weight: 110-130 g) starved overnight were orally administered with a test drug suspended in 0.5% CMC-Na, and after one hour, 0.1 ml of 1% carageenin solution (picnin-A, Zushi Kagaku) was subcutaneously injected into the right hind leg paw of each rat. Three hours later, the volume of the paw was determined by means of a plethysmometer (Model 7150, Ugo Basile Co.,Ltd.) and the rate of edema was evaluated in comparison with the volume of the paw before the carageenin injection as 100%. Inhibitory rate of each drug-treated group against edema formation was calculated in comparison with the solvent-treated control.

[2] = system: platelet aggregation (platelet rich plasma); assay: Inhibitory activity on platelet aggregation; assay type: cell-based, Japanese native white domestic rabbits; conditions: Oryctolagus cuniculus, rabbit PRP, 37° C.
Description: EXPERIMENT 8: INHIBITORY ACTIVITY ON PLATELET AGGREGATION
Blood of Japanese native white domestic rabbits was taken into a plastic centrifugal tube added with 1/10 in volume of 3.8% sodium citrate solution, and then, platelet rich plasma (PRP) containing 5 to 6×10^8 /ml platelets was obtained by centrifugation for 10 minutes. under 120×G. To 450 μl of the PRP, 25 μl of a solution containing the test drug (Compound 109) dissolved at a desired concentration was added.

ddY mice = assay: Acute toxicity; assay type: in vivo; conditions: mouse, oral, 600 mg/kg, observed for 2 weeks
Text: EXPERIMENT 9: ACUTE TOXICITY

5-lipoxygenase = molecular target: T1, 5-lipoxygenase (Cavia porcellus, UniProt A0A286X958); assay: Inhibitory activity on 5-lipoxygenase; assay type: biochemical, guinea pigs; conditions: 5-HETE generation, 20 μM 14C-arachidonic acid, pH 7.4, 37° C., 10 minutes
T1 construct: crude enzyme fraction prepared from peritoneal exudated cells of guinea pigs; endogenous in cells; host or cells: guinea pig peritoneal exudate cells (induced by intraperitoneal casein), crude enzyme fraction
T1 sequence (A0A286X958 1-674): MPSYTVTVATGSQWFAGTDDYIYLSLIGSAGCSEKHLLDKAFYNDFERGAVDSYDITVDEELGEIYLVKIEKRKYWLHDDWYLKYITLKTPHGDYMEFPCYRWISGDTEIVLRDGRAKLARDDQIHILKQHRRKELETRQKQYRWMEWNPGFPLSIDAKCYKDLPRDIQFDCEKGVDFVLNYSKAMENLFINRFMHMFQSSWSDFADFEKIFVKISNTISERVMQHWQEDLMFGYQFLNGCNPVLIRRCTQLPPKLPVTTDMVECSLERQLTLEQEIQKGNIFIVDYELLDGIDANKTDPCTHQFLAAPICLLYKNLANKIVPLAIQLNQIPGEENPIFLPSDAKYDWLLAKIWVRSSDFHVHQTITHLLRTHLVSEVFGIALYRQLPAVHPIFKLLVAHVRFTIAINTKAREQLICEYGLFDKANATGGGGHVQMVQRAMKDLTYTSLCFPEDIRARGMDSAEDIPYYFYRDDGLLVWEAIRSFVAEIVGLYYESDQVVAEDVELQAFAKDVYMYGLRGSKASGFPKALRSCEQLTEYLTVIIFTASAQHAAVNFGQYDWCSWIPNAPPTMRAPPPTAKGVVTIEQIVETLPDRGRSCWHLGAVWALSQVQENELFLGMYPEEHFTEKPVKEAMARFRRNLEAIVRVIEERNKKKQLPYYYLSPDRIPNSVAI
Description: EXPERIMENT 2: INHIBITORY ACTIVITY ON 5-LIPOXYGENASE
5-Lipoxygenase activity was determined according to the method described by Ochi et al., J. Biol. Chem.,258, p. 5754, 1983 using a crude enzyme fraction prepared from peritoneal exudated cells of guinea pigs which were induced by intraperitoneal injection of 2% case in solution. A solution of a test drug was mixed with a reaction solution (2mM ATP, 1 mM glutathione,and the enzyme fraction in 50 mM phosphate buffer, PH 7.4) and the mixture was pre-incubated at 37° C. for 5 minutes. Calcium chloride (1 mM) and 20 μM^14 C-arachidonic acid were added to the mixture, and then the mixture was subjected to a reaction at 37° C. for 10 minutes. After the completion of the reaction, the product was immediately extracted, dissolved in chloroform/methanol (2:1), and developed by thin-layer chromatography. Radioactivity of the 5-hydroxyeicosatetraenoic acid (5-HETE) fraction was measured using a liquid scintillation counter. Inhibitory rate of each drug-treated group against 5-HETE generation was obtained in comparison with the solvent-treated control, and IC50 was calculated according to the probit method.

[3] = system: auricle edema induced by oxazolone; assay: Effect on auricle edema induced by oxazolone (delayed allergy); assay type: in vivo, ICR mice; conditions: mouse, oral, 10 mg/kg × 2 (30 minutes before, 6 hours after), 24 hours
Description: EXPERIMENT 6: EFFECT ON AURICLE EDEMA INDUCED BY OXAZOLONE (DELAYED ALLERGY)
[…]. The mice were sensitized by the application of 0.1 ml of 0.5% oxazolone in ethanol to shaven abdominal skin. Five days later, inflammation was induced by applying 10 μl of 0.5% oxazolone in acetone to front and back surfaces Of the right auricle. After 24 hours, the thicknesses of the left and right auricles were measured by a dial gauge, and the rate of edema of the right auricle was calculated in comparison with the left auricle (normal). A test drug was suspended in 0.5% CMC--Na and orally administered twice to each mouse , i.e., 30 minutes before and 6 hours after the inflammation-inducing treatment. Inhibitory rate of each drug-treated group against edema was calculated in comparison with the solvent-treated control.

CCc1ccc(-c2cc(-c3ccc(OC)cc3)c(-c3ccc(OC)cc3)o2)n1CC(=O)O [Compound 109, 2,3-di-(4-methoxyphenyl)-5-(1-carboxymethyl-5-ethyl-2-pyrrolyl)furan]
Inhibition on Edema (%) [1]: 49.5%
IC50 ([2]; arachidonic acid (250 μM), read-out: IC50 against platelet aggregation induced by arachidonic acid): 1.5 µM
IC50 ([2]; collagen (5 μg/ml), read-out: IC50 against platelet aggregation induced by collagen): 13.3 µM
Dead Mice/Total Mice (ddY mice): 0/5
IC50 (5-lipoxygenase): 0.85 µM
Inhibition on Edema (%) [3]: 46.8%
